Experimental data: the supplement of paper PMC8149375

What was measured:
Conditions in all cases: treatment: drug + dasatinib (fixed dose, not stated); 5 days
[1] = tested on: 786-O; assay: AUC of dose-response viability curve, drug + dasatinib, normalised to DMSO (arbitrary (AUC of normalised viability)); higher = less growth inhibition
Procedure: (§1)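 Primary HTS combination arm: 8 RCC cell lines treated with 8 doses (up to 10 uM) of each library drug plus a fixed dose of dasatinib (dose not stated) for 5 days; viability read by CellTiter-Glo and normalised to DMSO. GI50 was fitted with XLfit, AUC is the area under the dose-response curve, and minimum viability is the lowest fraction of DMSO viability across doses.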

[2] = tested on: TK-10; assay: as above
Procedure: as §1

[3] = tested on: 769-P; assay: as above
Procedure: as §1

[4] = tested on: UO-31; assay: as above
Procedure: as §1

[5] = tested on: A498; assay: as above
Procedure: as §1

[6] = tested on: SN12C; assay: as above
Procedure: as §1

[7] = tested on: CAKI-1; assay: as above
Procedure: as §1

[8] = tested on: ACHN; assay: as above
Procedure: as §1

[9] = tested on: 786-O; assay: GI50 of drug in presence of dasatinib; higher = less potent
Procedure: as §1

[10] = tested on: TK-10; assay: as above
Procedure: as §1

[11] = tested on: 769-P; assay: as above
Procedure: as §1

[12] = tested on: UO-31; assay: as above
Procedure: as §1

[13] = tested on: A498; assay: as above
Procedure: as §1

[14] = tested on: SN12C; assay: as above
Procedure: as §1

[15] = tested on: CAKI-1; assay: as above
Procedure: as §1

[16] = tested on: ACHN; assay: as above
Procedure: as §1

[17] = tested on: 786-O; assay: minimum viability across doses, drug + dasatinib, relative to DMSO (fraction); higher = less growth inhibition
Procedure: as §1

[18] = tested on: TK-10; assay: as above
Procedure: as §1

[19] = tested on: 769-P; assay: as above
Procedure: as §1

[20] = tested on: UO-31; assay: as above
Procedure: as §1

[21] = tested on: A498; assay: as above
Procedure: as §1

[22] = tested on: SN12C; assay: as above
Procedure: as §1

[23] = tested on: CAKI-1; assay: as above
Procedure: as §1

[24] = tested on: ACHN; assay: as above
Procedure: as §1

Row | Compound | AUC of dose-response viability curve [1] | AUC of dose-response viability curve [2] | AUC of dose-response viability curve [3] | AUC of dose-response viability curve [4] | AUC of dose-response viability curve [5] | AUC of dose-response viability curve [6] | AUC of dose-response viability curve [7] | AUC of dose-response viability curve [8] | GI50 of drug [9] [nM] | GI50 of drug [10] [nM] | GI50 of drug [11] [nM] | GI50 of drug [12] [nM] | GI50 of drug [13] [nM] | GI50 of drug [14] [nM] | GI50 of drug [15] [nM] | GI50 of drug [16] [nM] | minimum viability across doses [17] | minimum viability across doses [18] | minimum viability across doses [19] | minimum viability across doses [20] | minimum viability across doses [21] | minimum viability across doses [22] | minimum viability across doses [23] | minimum viability across doses [24]
1 | COc1cc(Nc2ncc(F)c(Nc3ccc4c(n3)N(COP(=O)([O-])[O-])C(=O)C(C)(C)O4)n2)cc(OC)c1OC.[Na+].[Na+] + Cc1nc(Nc2ncc(C(=O)Nc3c(C)cccc3Cl)s2)cc(N2CCN(CCO)CC2)n1 [dasatinib] | 1.78 | 2.17 | 2.15 | 2.8 | 3.45 | 2.03 | 1.52 | 1.48 | 419 | 2070 | 1630 | 1580 | > 10000 | 793 | 161 | 68.7 | 0.245 | 0.304 | 0.0654 | 0.0117 | 0.671 | 0.202 | 0.00358 | 0.0433
2 | CNC(=O)c1ccc(C)c(-n2c(C)cc(OCc3ccc(F)cc3F)c(Br)c2=O)c1 + Cc1nc(Nc2ncc(C(=O)Nc3c(C)cccc3Cl)s2)cc(N2CCN(CCO)CC2)n1 [dasatinib] | 1.89 | 2.23 | 2.22 | 4.38 | 3.58 | 2.42 | 2.3 | 1.68 | < 3 | > 10000 | > 10000 | > 10000 | > 10000 | > 10000 | > 10000 | 90.6 | 0.457 | 0.541 | 0.558 | 1.15 | 0.937 | 0.64 | 0.561 | 0.346
3 | CCc1cccc(CC)c1NC(=O)N1Cc2[nH]nc(NC(=O)c3ccc(N4CCN(C)CC4)cc3)c2C1 + Cc1nc(Nc2ncc(C(=O)Nc3c(C)cccc3Cl)s2)cc(N2CCN(CCO)CC2)n1 [dasatinib] | 1.79 | 2.43 | 2.4 | 3.44 | 2.74 | 1.9 | 1.89 | 1.88 | 469 | 4610 | > 10000 | 7530 | 2720 | 641 | 818 | 566 | 0.0687 | 0.319 | 0.565 | 0.31 | 0.406 | 0.117 | 0.0817 | 0.129
4 | Cc1cccc(-c2nc(C(C)(C)C)[nH]c2-c2ccc3nccnc3c2)n1 + Cc1nc(Nc2ncc(C(=O)Nc3c(C)cccc3Cl)s2)cc(N2CCN(CCO)CC2)n1 [dasatinib] | 2.16 | 2.51 | 2.34 | 4.8 | 3.7 | 2.18 | 2.29 | 2.06 | > 10000 | > 10000 | 7810 | > 10000 | 8410 | 3770 | 7370 | > 10000 | 0.517 | 0.61 | 0.476 | 0.824 | 0.411 | 0.317 | 0.486 | 0.559
5 | CNC(=O)c1nn(C)c2c1C(C)(C)Cc1cnc(Nc3ccc(N4CCN(C)CC4)cc3)nc1-2 + Cc1nc(Nc2ncc(C(=O)Nc3c(C)cccc3Cl)s2)cc(N2CCN(CCO)CC2)n1 [dasatinib] | 1.35 | 1.63 | 1.77 | 2.02 | 3.23 | 1.71 | 1.11 | 1.03 | 35.5 | 137 | 245 | 279 | 3470 | 261 | 38.8 | 22 | 0.00492 | 0.189 | 0.0274 | 0.0113 | 0.0243 | 0.0108 | 0.0344 | 0.0123
6 | Oc1ccc(-c2nc(-c3ccc(F)cc3)c(-c3ccncc3)[nH]2)cc1 + Cc1nc(Nc2ncc(C(=O)Nc3c(C)cccc3Cl)s2)cc(N2CCN(CCO)CC2)n1 [dasatinib] | 2.57 | 2.53 | 2.27 | 3.66 | 3.53 | 2.45 | 2.52 | 1.74 | > 10000 | > 10000 | > 10000 | > 10000 | > 10000 | > 10000 | > 10000 | 449 | 0.609 | 0.634 | 0.56 | 0.768 | 0.909 | 0.652 | 0.555 | 0.279
7 | Cn1cc(C2=C(c3ccc(Cl)cc3Cl)C(=O)NC2=O)c2ccccc21 + Cc1nc(Nc2ncc(C(=O)Nc3c(C)cccc3Cl)s2)cc(N2CCN(CCO)CC2)n1 [dasatinib] | 2.55 | 2.74 | 2.36 | 3.15 | 3.8 | 2.53 | 0.956 | 2.2 | > 10000 | > 10000 | 5290 | 6210 | > 10000 | > 10000 | > 10000 | > 10000 | 0.587 | 0.532 | 0.288 | 0.191 | 0.929 | 0.642 | 0.562 | 0.548
8 | O=C1NCCc2[nH]c(-c3ccncc3)cc21 + Cc1nc(Nc2ncc(C(=O)Nc3c(C)cccc3Cl)s2)cc(N2CCN(CCO)CC2)n1 [dasatinib] | 1.73 | 2.27 | 2.35 | 3.26 | 3.35 | 2.23 | 1.98 | 1.72 | 196 | 2040 | 8350 | 2310 | 3110 | 4170 | 718 | 578 | 0.00389 | 0.185 | 0.463 | 0.0107 | 0.0141 | 0.0225 | 0.0883 | 0.0122
9 | Cc1[nH]c(/C=C2\C(=O)Nc3ccc(S(=O)(=O)Cc4c(Cl)cccc4Cl)cc32)c(C)c1C(=O)N1CCC[C@@H]1CN1CCCC1 + Cc1nc(Nc2ncc(C(=O)Nc3c(C)cccc3Cl)s2)cc(N2CCN(CCO)CC2)n1 [dasatinib] | 2.38 | 2.73 | 2.14 | 2.84 | 2.71 | 2.19 | 2.04 | 1.93 | 3300 | 4110 | 2300 | 3100 | 2100 | 4240 | 2160 | 1060 | 0.0107 | 0.00273 | 0.00439 | 0.0078 | 0.0111 | 0.00449 | 0.00431 | 0.00119
10 | N#CC[C@H](C1CCCC1)n1cc(-c2ncnc3[nH]ccc23)cn1 + Cc1nc(Nc2ncc(C(=O)Nc3c(C)cccc3Cl)s2)cc(N2CCN(CCO)CC2)n1 [dasatinib] | 2.44 | 2.61 | 2.39 | 3.91 | 3.44 | 2.5 | 2.21 | 1.97 | > 10000 | > 10000 | > 10000 | > 10000 | > 10000 | > 10000 | 4270 | > 10000 | 0.536 | 0.686 | 0.557 | 0.486 | 0.911 | 0.689 | 0.331 | 0.504
11 | CN(C)C1CCN(C(=O)c2ccc(NC(=O)Nc3ccc(-c4nc(N5CCOCC5)nc(N5CCOCC5)n4)cc3)cc2)CC1 + Cc1nc(Nc2ncc(C(=O)Nc3c(C)cccc3Cl)s2)cc(N2CCN(CCO)CC2)n1 [dasatinib] | 1.23 | 1.91 | 2.27 | 3.11 | 1.37 | 1.04 | 1.74 | 1.62 | 49.8 | 306 | 2870 | 1680 | 56.3 | 19.2 | 302 | 165 | 0.00554 | 0.112 | 0.147 | 0.117 | 0.0743 | 0.107 | 0.0335 | 0.125
12 | CS(=O)c1ccc(-c2nc(-c3ccc(F)cc3)c(-c3ccncc3)[nH]2)cc1 (stereo not given) + Cc1nc(Nc2ncc(C(=O)Nc3c(C)cccc3Cl)s2)cc(N2CCN(CCO)CC2)n1 [dasatinib] | 2.73 | 2.45 | 2.31 | 3.73 | 3.76 | 2.65 | 2.3 | 1.82 | > 10000 | > 10000 | > 10000 | > 10000 | > 10000 | > 10000 | > 10000 | 15.7 | 0.746 | 0.655 | 0.593 | 0.962 | 0.893 | 0.716 | 0.516 | 0.434
13 | CN(C)CCOc1ccc(-c2nc(-c3ccncc3)c(-c3ccc4c(c3)CC/C4=N/O)[nH]2)cc1 + Cc1nc(Nc2ncc(C(=O)Nc3c(C)cccc3Cl)s2)cc(N2CCN(CCO)CC2)n1 [dasatinib] | 2.6 | 3.03 | 2.3 | 3.9 | 3.54 | 2.57 | 2.33 | 2.29 | 3720 | 9950 | 3460 | 8340 | 3760 | > 10000 | 3900 | 2480 | 0.0096 | 0.497 | 0.0915 | 0.0511 | 0.0493 | 0.476 | 0.0583 | 0.0859
14 | CC(C)CC(=O)Nc1n[nH]c2c1CN(C(=O)C1CCN(C)CC1)C2(C)C + Cc1nc(Nc2ncc(C(=O)Nc3c(C)cccc3Cl)s2)cc(N2CCN(CCO)CC2)n1 [dasatinib] | 1.21 | 2.43 | 2.32 | 3.13 | 2.59 | 1.7 | 1.99 | 1.11 | 85.8 | 2840 | 3220 | 1960 | 1290 | 248 | 842 | 18.9 | 0.0032 | 0.184 | 0.288 | 0.0113 | 0.00865 | 0.00656 | 0.0614 | 0.0258
15 | OCc1ccc(-c2ccc(-c3ccc(CO)s3)o2)s1 + Cc1nc(Nc2ncc(C(=O)Nc3c(C)cccc3Cl)s2)cc(N2CCN(CCO)CC2)n1 [dasatinib] | 1.04 | 0.849 | 0.925 | 3.23 | 2.69 | 1.8 | 0.396 | 1.2 | 18 | 15 | 9.16 | 917 | 1700 | 219 | 4.49 | 69.6 | 0.0022 | 0.0365 | 0.0624 | 0.0841 | 0.292 | 0.0563 | 0.00172 | 0.0471
